Laboratory results reported in ChEMBL document CHEMBL4390686, “Design, Synthesis, and Pharmacokinetic Evaluation of Phosphate and Amino Acid Ester Prodrugs for Improving the Oral Bioavailability of the HIV-1 Protease Inhibitor Atazanavir” (J Med Chem, 2019).
Values after ≈ are worked out from the molar mass of the structure shown.

What was measured:
[1] = Prodrug conversion in cannulated Sprague-Dawley rat plasma assessed as atazanavir formation at 3 mg/kg equiv of atazanavir administered orally by UPLC/MS/MS analysis; assay type: ADME, organism-based; details: in vivo, po
[2] = Prodrug conversion assessed as recombinant rat intestinal alkaline phosphatase-mediated compound dephosphorylation by measuring half life by UPLC-MS/MS analysis; assay type: ADME
[3] = Prodrug conversion assessed as recombinant human intestinal alkaline phosphatase-mediated compound dephosphorylation by measuring half life by UPLC-MS/MS analysis; assay type: ADME; details: isolated protein
[4] = physchem; details: 30% CH3CN/HCl buffer, pH 1
Description: Half life in pH 1 30%CH3CN/HCl buffer at 50 mM by RP-UPLC analysis

[5] = physchem; details: 30% CH3CN/acetate buffer, pH 4
Description: Half life in pH 4 30%CH3CN/acetate buffer at 50 mM by RP-UPLC analysis

[6] = physchem; details: 30% CH3CN/phosphate buffer, pH 6.5
Description: Half life in pH 6.5 30%CH3CN/phosphate buffer at 50 mM by RP-UPLC analysis

[7] = physchem; details: HCl buffer, pH 1
Description: Aqueous solubility of the compound in pH 1 HCl buffer by RP-UPLC analysis

[8] = physchem; details: acetate buffer, pH 4
Description: Aqueous solubility of the compound in pH 4 acetate buffer by RP-UPLC analysis

[9] = physchem; details: phosphate buffer, pH 6.5
Description: Aqueous solubility of the compound in pH 6.5 phosphate buffer by RP-UPLC analysis

[10] = Aqueous solubility of the compound in pH 3 buffer by RP-UPLC analysis; assay type: physicochemical
[11] = Aqueous solubility of the compound in pH 4 citrate buffer by RP-UPLC analysis; assay type: physicochemical
[12] = Aqueous solubility of the compound in pH 5 buffer by RP-UPLC analysis; assay type: physicochemical
[13] = Elimination half life in rat hepatocytes at 1 uM in absence of esterase inhibitor PMSF/CYP450 inhibitor ABT; assay type: ADME, cell-based, Hepatocyte; details: read-out: beta t1/2
[14] = Prodrug conversion in mesenteric vein plasma of closed loop rat intestinal model assessed as atazanavir recovery at 1 mg/kg administered as cassette dose by LC/MS analysis; assay type: ADME, organism-based; details: in vivo
[15] = Prodrug conversion in intestinal homogenates of closed loop rat intestinal model assessed as atazanavir recovery at 1 mg/kg administered as cassette dose by LC/MS analysis; assay type: ADME, organism-based, Intestine; details: in vivo
[16] = Prodrug conversion in intestinal content of closed loop rat intestinal model assessed as atazanavir recovery at 1 mg/kg administered as cassette dose by LC/MS analysis; assay type: ADME, organism-based; details: in vivo
[17] = target: T1, UDP-glucuronosyltransferase 1A1 (Homo sapiens, UniProt P22309); assay: Inhibition of recombinant human UGT1A1 using bilirubin as substrate preincubated for 5 mins followed by substrate addition and measured after 40 mins by LC-MS/MS analysis; assay type: ADME
T1 sequence (P22309 whole entry): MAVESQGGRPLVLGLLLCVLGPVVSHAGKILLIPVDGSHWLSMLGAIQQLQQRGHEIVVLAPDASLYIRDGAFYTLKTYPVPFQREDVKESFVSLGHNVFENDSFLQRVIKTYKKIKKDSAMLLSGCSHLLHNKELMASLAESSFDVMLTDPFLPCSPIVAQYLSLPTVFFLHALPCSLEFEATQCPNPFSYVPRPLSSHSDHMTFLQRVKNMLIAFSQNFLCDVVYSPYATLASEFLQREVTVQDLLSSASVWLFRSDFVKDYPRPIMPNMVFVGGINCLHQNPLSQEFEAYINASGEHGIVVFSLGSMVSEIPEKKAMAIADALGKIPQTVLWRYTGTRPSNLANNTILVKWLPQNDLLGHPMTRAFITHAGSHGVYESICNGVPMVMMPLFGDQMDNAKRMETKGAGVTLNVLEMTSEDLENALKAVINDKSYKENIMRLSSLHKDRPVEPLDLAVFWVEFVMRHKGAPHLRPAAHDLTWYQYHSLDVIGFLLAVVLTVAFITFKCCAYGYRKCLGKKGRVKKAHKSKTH

[18] = target: T2, UDP-glucuronosyltransferase 1A1 (Rattus norvegicus, UniProt Q64550); assay: Inhibition of recombinant rat UGT1A1 using beta-estradiol as substrate preincubated for 5 mins followed by substrate addition and measured after 40 mins by LC-MS/MS analysis; assay type: ADME
T2 sequence (Q64550 whole entry): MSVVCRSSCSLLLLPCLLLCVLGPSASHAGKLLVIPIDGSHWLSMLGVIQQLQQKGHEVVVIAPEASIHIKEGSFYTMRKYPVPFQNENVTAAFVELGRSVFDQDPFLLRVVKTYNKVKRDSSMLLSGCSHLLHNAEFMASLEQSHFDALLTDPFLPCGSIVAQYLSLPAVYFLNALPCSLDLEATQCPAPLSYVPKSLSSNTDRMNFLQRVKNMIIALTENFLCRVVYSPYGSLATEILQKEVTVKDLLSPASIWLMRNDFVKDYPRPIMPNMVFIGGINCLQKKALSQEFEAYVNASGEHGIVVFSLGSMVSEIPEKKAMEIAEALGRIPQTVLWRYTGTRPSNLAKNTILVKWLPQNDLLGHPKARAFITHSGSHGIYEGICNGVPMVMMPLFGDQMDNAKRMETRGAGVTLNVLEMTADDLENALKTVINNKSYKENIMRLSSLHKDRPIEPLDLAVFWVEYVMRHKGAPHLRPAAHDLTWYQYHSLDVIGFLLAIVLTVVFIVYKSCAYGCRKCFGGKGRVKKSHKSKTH

[19] = target: T1, UDP-glucuronosyltransferase 1A1; assay: Inhibition of UGT1A1 in human liver microsomes using beta-estradiol as substrate preincubated for 5 mins followed by substrate addition and measured after 40 mins by LC-MS/MS analysis; assay type: ADME
[20] = target: T2, UDP-glucuronosyltransferase 1A1; assay: Inhibition of UGT1A1 in rat liver microsomes using beta-estradiol as substrate preincubated for 5 mins followed by substrate addition and measured after 40 mins by LC-MS/MS analysis; assay type: ADME
[21] = Drug recovery in feces of po dosed human; assay type: ADME, organism-based; details: faeces, read-out: Drug recovery
[22] = Oral bioavailability in rat; assay type: ADME, organism-based; details: in vivo
[23] = Oral bioavailability in dog; assay type: ADME, organism-based, Canis lupus familiaris; details: in vivo
[24] = Drug recovery in feces of po dosed rat; assay type: ADME, organism-based; details: faeces, read-out: Drug recovery
[25] = Drug recovery in feces of po dosed dog; assay type: ADME, organism-based, Canis lupus familiaris; details: faeces, read-out: Drug recovery
[26] = Dissociation constant, pKa of the compound; assay type: physicochemical
[27] = target: Protease (Human immunodeficiency virus 1, UniProt Q9YQ12)
Description: Inhibition of HIV1 protease activity

[28] = physchem; details: phosphate buffer, pH 7.4
Description: Aqueous solubility of the compound in pH 7.4 phosphate buffer by RP-UPLC analysis

[29] = in vitro; details: human, Caco-2
Description: Apparent permeability across apical to basolateral side in human Caco2 cells at 2 uM

[30] = in vitro; details: human, Caco-2; remark: listed apart in the source
Description: Apparent permeability across basolateral to apical side in human Caco2 cells at 2 uM

[31] = in vitro; details: human, Caco-2; remark: listed apart in the source
Description: Efflux ratio of apparent permeability across basolateral to apical side over apical to basolateral side in human Caco2 cells

[32] = test system: Human immunodeficiency virus 1; assay: microbe, parasite or virus in culture; details: Human immunodeficiency virus 1, NL4-3, MT2, 96 h
Description: Antiviral activity against HIV1 NL4-3 infected in human MT2 cells assessed as reduction in viral yield measured after 4 days by EnduRen live cell substrate based luciferase reporter gene assay

[33] = Prodrug conversion assessed as calf intestinal alkaline phosphatase-mediated compound dephosphorylation by measuring half life by UPLC-MS/MS analysis; assay type: ADME, Bos taurus; details: cattle, isolated protein
[34] = Drug recovery in mesenteric vein plasma of closed loop rat intestinal model at 1 mg/kg administered as cassette dose by LC/MS analysis; assay type: ADME, organism-based; details: in vivo
[35] = Drug recovery in intestinal homogenates of closed loop rat intestinal model at 1 mg/kg administered as cassette dose by LC/MS analysis; assay type: ADME, organism-based, Intestine; details: intestinal homogenate, other: closed loop intestinal model, read-out: Drug recovery
[36] = Drug recovery in intestinal content of closed loop rat intestinal model at 1 mg/kg administered as cassette dose by LC/MS analysis; assay type: ADME, organism-based; details: in vivo

Sequence of Protease (Q9YQ12 whole entry): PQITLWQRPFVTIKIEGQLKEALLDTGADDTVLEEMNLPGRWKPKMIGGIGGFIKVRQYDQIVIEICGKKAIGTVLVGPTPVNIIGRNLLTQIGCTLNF

## COC(=O)N[C@H](C(=O)N[C@@H](Cc1ccccc1)[C@H](CN(Cc1ccc(-c2ccccn2)cc1)NC(=O)[C@@H](NC(=O)OC)C(C)(C)C)OP(=O)(O)O)C(C)(C)C
[1]
  Drug metabolism: Metabolite_Notdetected
[2]
  t1/2: > 0.0833 days
[3]
  t1/2: > 0.0833 days
[4]
  half-life at 50000 µM: 13.9 days
[5]
  half-life at 50000 µM: 13.9 days
[6]
  half-life at 50000 µM: 10.4 days
[7]
  solubility: > 2650 µg/mL
[8]
  solubility: 250 µg/mL (≈ 319 µM)
[9]
  solubility: > 2870 µg/mL

## COC(=O)N[C@H](C(=O)N[C@@H](Cc1ccccc1)[C@@H](O)CN(Cc1ccc(-c2ccccn2)cc1)NC(=O)[C@@H](NC(=O)OC)C(C)(C)C)C(C)(C)C [ATAZANAVIR]
[10]
  solubility: 28 µg/mL (≈ 39.7 µM)
[11]
  solubility: < 1 µg/mL
[12]
  solubility: < 1 µg/mL
[13]
  half-life at 1 µM: 0.0187 days
[14]
  Drug recovery: 1.4%
[15]
  Drug recovery: 1.6%
[16]
  Drug recovery: 16.1%
[17]
  IC50: 300 nM
[18]
  IC50: 4200 nM
[19]
  IC50: 600 nM
[20]
  IC50: 3400 nM
[21]
  dose excreted: 79%
[22]
  bioavailability: 15%
[23]
  bioavailability: 36%
[24]
  dose excreted: 39%
[25]
  dose excreted: 79%
[26]
  pKa: 4.7
[27]
  IC50: 0.3 nM
[28]
  solubility: < 1 µg/mL
[29]
  Papp A→B at 2 µM: < 1.5 ×10⁻⁶ cm/s
[30]
  Papp B→A at 2 µM: 20.3 ×10⁻⁶ cm/s
[31]
  efflux ratio: > 14
[32]
  EC50: 0.7 nM

## Cc1cccc(C)c1OCC(=O)N[C@@H](Cc1ccccc1)[C@@H](O)C[C@H](Cc1ccccc1)NC(=O)[C@H](C(C)C)N1CCCNC1=O [LOPINAVIR]
[1]
  Drug metabolism: Metabolite_Detected
[33]
  t1/2: 0.00917 days

## CC(C)(C)NCC(O)COc1cccc2c1CC(O)C(O)C2 (configuration not stated) [NADOLOL]
[34]
  Drug recovery: 1.3%
[35]
  recovery: 14%
[36]
  Drug recovery: 45%
